# Assay results as given in patent publication US9211310B2, “Use of a Chinese medicine composition in preparing medicaments for treating secondary prevention of myocardial infarction” (TASLY PHARMACEUTICAL GROUP CO., LTD, priority 2010, dated 2015).
# Test system: patients after acute myocardial infarction
# Assay: Life quality, Seattle Angina Questionnaire (SAQ), same clinical trial
# Assay type: in vivo, human
# Description: 3508 patients who were in accordance with the diagnostic standards of AMI for 28 days to 2 years and differentiated as Qi deficiency and blood stagnation syndrome by TCM were studied. 0.5 g Chinese medicine composition prepared by the method of EXAMPLE 1 (Coded as QSYQ) was administrated half an hour after meal, 3 times per day.
# There were 19 questions in the Seattle angina questionnaire (SAQ), including 5 parts: physical limitation (PL), anginal stability (AS), anginal frequency (AF), treatment satisfaction (TS) and disease perception (DP). After being given necessary explanation by doctors, the questions were answered independently by patients.
# They included the overall survival time, angina pectoris score, TCM symptom score and life quality score, where angina pectoris score, TCM symptom score and life quality score were evaluated at randomization, in 1st, 3rd, 6th, 9th, 12th month after treatment and 18th month after follow-up.
# All evaluation results of SAQ were described during the period of observation, and Wilcoxon rank sum test was used for inter-group comparison.
# The evaluation results in the SAQ were depicted in different observations, and inter-group comparison was tested by Wilcoxon Rank-sum test.
compound,measurement,setting,value
"CC(=O)Oc1ccccc1C(=O)O [Control group, aspirine]","SAQ 2nd question: Slightly increased, cases","1 month after treatment, PP",43
same,"SAQ 2nd question: Slightly reduced, % of cases","1 month after treatment, PP",(30.18%)
same,"SAQ 2nd question: Slightly reduced, cases","1 month after treatment, PP",447
same,"SAQ 3rd question: 1-2 times per week, % of cases","1 month after treatment, PP",(30.18%)
same,"SAQ 3rd question: 1-2 times per week, cases","1 month after treatment, PP",447
same,"SAQ 3rd question: 1-3 times per day, % of cases","1 month after treatment, PP",(2.90%)
same,"SAQ 3rd question: 1-3 times per day, cases","1 month after treatment, PP",43
same,"SAQ 3rd question: <1 time per week, % of cases","1 month after treatment, PP",(16.75%)
same,"SAQ 3rd question: <1 time per week, cases","1 month after treatment, PP",248
same,"SAQ 3rd question: No onset, % of cases","1 month after treatment, PP",(0.00%)
same,"SAQ 3rd question: No onset, cases","1 month after treatment, PP",0
same,"SAQ 3rd question: ≧3 times per week, % of cases","1 month after treatment, PP",(49.63%)
same,"SAQ 3rd question: ≧3 times per week, cases","1 month after treatment, PP",735
same,"SAQ 3rd question: ≧4 times per day, % of cases","1 month after treatment, PP",(0.54%)
same,"SAQ 3rd question: ≧4 times per day, cases","1 month after treatment, PP",8
same,"SAQ Question 1-3: Mildly limited, number of patients","1 month after treatment, PP",114
same,"SAQ Question 1-3: Mildly limited, percent of patients","1 month after treatment, PP",(7.67%)
same,"SAQ Question 1-3: Moderately limited, number of patients","1 month after treatment, PP",25
same,"SAQ Question 1-3: Moderately limited, percent of patients","1 month after treatment, PP",(1.68%)
same,"SAQ Question 1-3: Not limited, number of patients","1 month after treatment, PP",1064
same,"SAQ Question 1-3: Not limited, percent of patients","1 month after treatment, PP",(71.60%)
same,"SAQ Question 1-3: Other reasons, number of patients","1 month after treatment, PP",7
same,"SAQ Question 1-3: Other reasons, percent of patients","1 month after treatment, PP",(0.47%)
same,"SAQ Question 1-3: Severely limited, number of patients","1 month after treatment, PP",5
same,"SAQ Question 1-3: Severely limited, percent of patients","1 month after treatment, PP",(0.34%)
same,"SAQ Question 1-3: Slightly limited, number of patients","1 month after treatment, PP",271
same,"SAQ Question 1-3: Slightly limited, percent of patients","1 month after treatment, PP",(18.24%)
same,"SAQ Question 1-4: Mildly limited, number of patients","1 month after treatment, PP",303
same,"SAQ Question 1-4: Mildly limited, percent of patients","1 month after treatment, PP",(20.43%)
same,"SAQ Question 1-4: Moderately limited, number of patients","1 month after treatment, PP",138
same,"SAQ Question 1-4: Moderately limited, percent of patients","1 month after treatment, PP",(9.31%)
same,"SAQ Question 1-4: Not limited, number of patients","1 month after treatment, PP",521
same,"SAQ Question 1-4: Not limited, percent of patients","1 month after treatment, PP",(35.13%)
same,"SAQ Question 1-4: Other reasons, number of patients","1 month after treatment, PP",11
same,"SAQ Question 1-4: Other reasons, percent of patients","1 month after treatment, PP",(0.74%)
same,"SAQ Question 1-4: Severely limited, number of patients","1 month after treatment, PP",27
same,"SAQ Question 1-4: Severely limited, percent of patients","1 month after treatment, PP",(1.82%)
same,"SAQ Question 1-4: Slightly limited, number of patients","1 month after treatment, PP",483
same,"SAQ Question 1-4: Slightly limited, percent of patients","1 month after treatment, PP",(32.57%)
same,"SAQ Question 1-5: Mildly limited, number of patients","1 month after treatment, PP",278
same,"SAQ Question 1-5: Mildly limited, percent of patients","1 month after treatment, PP",(18.76%)
same,"SAQ Question 1-5: Moderately limited, number of patients","1 month after treatment, PP",166
same,"SAQ Question 1-5: Moderately limited, percent of patients","1 month after treatment, PP",(11.20%)
same,"SAQ Question 1-5: Not limited, number of patients","1 month after treatment, PP",546
same,"SAQ Question 1-5: Not limited, percent of patients","1 month after treatment, PP",(36.84%)
same,"SAQ Question 1-5: Other reasons, number of patients","1 month after treatment, PP",9
same,"SAQ Question 1-5: Other reasons, percent of patients","1 month after treatment, PP",(0.61%)
same,"SAQ Question 1-5: Severely limited, number of patients","1 month after treatment, PP",24
same,"SAQ Question 1-5: Severely limited, percent of patients","1 month after treatment, PP",(1.62%)
same,"SAQ Question 1-5: Slightly limited, number of patients","1 month after treatment, PP",459
same,"SAQ Question 1-5: Slightly limited, percent of patients","1 month after treatment, PP",(30.97%)
same,"SAQ Question 1-9: Mildly limited, % of cases","1 month after treatment, PP",(16.54%)
same,"SAQ Question 1-9: Mildly limited, cases","1 month after treatment, PP",239
same,"SAQ Question 1-9: Moderately limited, % of cases","1 month after treatment, PP",(21.45%)
same,"SAQ Question 1-9: Moderately limited, cases","1 month after treatment, PP",310
same,"SAQ Question 1-9: Not limited, % of cases","1 month after treatment, PP",(2.98%)
same,"SAQ Question 1-9: Not limited, cases","1 month after treatment, PP",43
same,"SAQ Question 1-9: Other reasons, % of cases","1 month after treatment, PP",(6.44%)
same,"SAQ Question 1-9: Other reasons, cases","1 month after treatment, PP",93
same,"SAQ Question 1-9: Severely limited, % of cases","1 month after treatment, PP",(42.70%)
same,"SAQ Question 1-9: Severely limited, cases","1 month after treatment, PP",617
same,"SAQ Question 1-9: Slightly limited, % of cases","1 month after treatment, PP",(9.90%)
same,"SAQ Question 1-9: Slightly limited, cases","1 month after treatment, PP",143
same,"SAQ 2nd question: Clearly increased, % of cases","3 months after treatment, FAS",(0.92%)
same,"SAQ 2nd question: Clearly increased, cases","3 months after treatment, FAS",16
same,"SAQ 2nd question: Clearly reduced, % of cases","3 months after treatment, FAS",(21.15%)
same,"SAQ 2nd question: Clearly reduced, cases","3 months after treatment, FAS",368
same,"SAQ 2nd question: Same, % of cases","3 months after treatment, FAS",(42.13%)
same,"SAQ 2nd question: Same, cases","3 months after treatment, FAS",733
same,"SAQ 2nd question: Slightly increased, % of cases","3 months after treatment, FAS",(3.79%)
same,"SAQ 2nd question: Slightly increased, cases","3 months after treatment, FAS",66
same,"SAQ 2nd question: Slightly reduced, % of cases","3 months after treatment, FAS",(32.01%)
same,"SAQ 2nd question: Slightly reduced, cases","3 months after treatment, FAS",557
same,"SAQ 3rd question: 1-2 times per week, % of cases","3 months after treatment, FAS",(32.01%)
same,"SAQ 3rd question: 1-2 times per week, cases","3 months after treatment, FAS",557
same,"SAQ 3rd question: 1-3 times per day, % of cases","3 months after treatment, FAS",(3.79%)
same,"SAQ 3rd question: 1-3 times per day, cases","3 months after treatment, FAS",66
